Results from PMC9605770, “Molecular docking and antihypertensive effects of a novel angiotensin-I converting enzyme inhibitory peptide from yak bone” (Frontiers in Nutrition, 2022).
Like-named read-outs stand apart in the source and are kept apart here. Each block holds one molecule with its values, some of them ahead of it. Where a SMILES comes first, the peptide text is derived from it.

Columns and labels:
[1] = In vitro gastrointestinal digestion of the peptide; assay type: in vitro ADME
Description: Gastrointestinal digestion was evaluated according to the method of Dang et al. ([15]) and Mulet-Cabero et al. ([18]) with minor modification. Simulated gastric juice (pH 2.0) and simulated intestinal fluid mixture (pH 7.6) were added to peptide solution and incubated at 37°C for 2 h, respectively.

[2] = tested on: spontaneously hypertensive rats (SHRs); experiment: Antihypertensive effect in SHRs (tail-cuff SBP); assay type: in vivo, rat; conditions: oral, positive control group, 10 mg/kg BW, n = 6 per group
Description: The systolic blood pressure (SBP) changes in the SHRs were measured by the tail-cuff method to determine the antihypertensive effect of ser-ala-ser-val-ile-pro-val-ser-ala-val-arg-ala (SASVIPVSAVRA) in vivo. Twenty female SHRs, weighing 230 ± 15 g and the SBP exceeding 190 mmHg, were obtained from Beijing Vital River Laboratory Animal Technology Co., Ltd. (China).
The SHRs were free to eat and drink at 25 ± 4°C and a 40 ± 6% humidity. To get the rats to adapt to the environment, the systolic blood pressure was measured once a day for 1 week. After a week of adaptation, the SHRs were randomly divided into three groups with each group containing 6 SHRs: the control group (sterilized water), captopril group (10 mg/kg captopril BW), SASVIPVSAVRA (30 mg/kg SASVIPVSAVRA BW). The effect of ACE inhibitors on SBP were measured by the Softron BP non-invasive blood pressure monitor (Softron BP-2000, Tokyo, Japan) at 0, 2, 4, and 6 h after oral administration ([1]), The measurements were repeated five times, the recordings were reported as mean ± standard deviation (SD). All animal procedures used in this trial were approved by the Institutional Animal Care and Use Committee of Hangzhou Medical College (Approval No. ZJCLA-IACUC-20010014).

[3] = tested on: ACE; conditions: read-out: IC50 of ACE inhibition, cited from earlier work
Source text: Therefore, it was meaningful to study the ACE inhibitory activity of SASVIPVSAVRA. || Generally, the presence of amino acids (Val, Ile) with hydrophobic branches would increase the ACE inhibitory activity ([26]). Therefore, the Val residue and Ile residue in SASVIPVSAVRA may contribute to the ACE activity of the peptide. […] The peptide SASVIPVSAVRA isolated from the yak bone hydrolysate also contained the tripeptide above-mentioned (VIP). The ACE inhibitory activity may also be due to the presence of ACE inhibitor VIP in its structure. Howev ...

[4] = target: T1, angiotensin-converting enzyme (ACE) (UniProt P12822)
T1 sequence: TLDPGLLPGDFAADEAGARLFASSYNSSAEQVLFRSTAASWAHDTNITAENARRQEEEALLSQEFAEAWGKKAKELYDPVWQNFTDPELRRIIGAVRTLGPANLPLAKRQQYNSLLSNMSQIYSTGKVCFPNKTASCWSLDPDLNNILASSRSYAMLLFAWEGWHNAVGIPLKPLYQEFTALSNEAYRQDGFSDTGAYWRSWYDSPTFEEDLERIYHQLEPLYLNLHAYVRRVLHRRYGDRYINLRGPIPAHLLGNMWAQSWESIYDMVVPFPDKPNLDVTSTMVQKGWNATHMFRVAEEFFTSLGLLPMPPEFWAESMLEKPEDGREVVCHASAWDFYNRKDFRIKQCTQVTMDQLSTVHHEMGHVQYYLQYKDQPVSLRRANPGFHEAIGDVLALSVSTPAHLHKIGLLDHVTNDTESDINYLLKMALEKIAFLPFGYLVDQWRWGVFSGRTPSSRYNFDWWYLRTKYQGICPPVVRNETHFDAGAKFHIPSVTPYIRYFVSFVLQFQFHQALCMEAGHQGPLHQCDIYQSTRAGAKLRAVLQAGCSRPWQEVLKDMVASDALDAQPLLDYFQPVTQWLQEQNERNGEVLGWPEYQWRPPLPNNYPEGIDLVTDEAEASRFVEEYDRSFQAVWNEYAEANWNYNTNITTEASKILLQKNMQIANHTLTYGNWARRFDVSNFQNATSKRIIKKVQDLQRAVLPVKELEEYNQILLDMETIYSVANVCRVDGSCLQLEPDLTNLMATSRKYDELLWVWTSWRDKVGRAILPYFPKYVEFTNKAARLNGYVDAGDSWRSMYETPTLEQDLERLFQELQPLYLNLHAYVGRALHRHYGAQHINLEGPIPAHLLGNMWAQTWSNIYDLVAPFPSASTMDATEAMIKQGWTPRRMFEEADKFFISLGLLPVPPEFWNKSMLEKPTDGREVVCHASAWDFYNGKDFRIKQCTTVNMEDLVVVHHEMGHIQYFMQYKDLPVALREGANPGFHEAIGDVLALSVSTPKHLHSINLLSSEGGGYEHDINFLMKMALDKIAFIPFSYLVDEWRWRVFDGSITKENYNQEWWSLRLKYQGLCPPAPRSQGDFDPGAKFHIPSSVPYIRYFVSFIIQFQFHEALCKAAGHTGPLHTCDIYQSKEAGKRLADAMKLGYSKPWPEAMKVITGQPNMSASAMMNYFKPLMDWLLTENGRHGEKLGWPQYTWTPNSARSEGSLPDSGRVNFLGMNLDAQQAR

Digestive stability (peak of parent peptide in digested samples) ([1]; simulated gastric juice pH 2.0 and simulated intestinal fluid pH 7.6, 37°C, 2 h each, MS (TIC chromatography)): easily digested
Molecule: CC[C@H](C)[C@H](NC(=O)[C@@H](NC(=O)[C@H](CO)NC(=O)[C@H](C)NC(=O)[C@@H](N)CO)C(C)C)C(=O)N1CCC[C@H]1C(=O)N[C@H](C(=O)N[C@@H](CO)C(=O)N[C@@H](C)C(=O)N[C@H](C(=O)N[C@@H](CCCNC(=N)N)C(=O)N[C@@H](C)C(=O)O)C(C)C)C(C)C [SASVIPVSAVRA, ser-ala-ser-val-ile-pro-val-ser-ala-val-arg-ala] (H-SASVIPVSAVRA-OH)

Metabolite found in the digestion sample ([1]; digestion of SASVIPVSAVRA, simulated gastric juice pH 2.0 and intestinal fluid pH 7.6, 37°C, peak area by MS): main metabolite
Molecule: CC[C@H](C)[C@H](NC(=O)[C@@H](NC(=O)[C@H](CO)NC(=O)[C@H](C)NC(=O)[C@@H](N)CO)C(C)C)C(=O)N1CCC[C@H]1C(=O)N[C@H](C(=O)N[C@@H](CO)C(=O)N[C@@H](C)C(=O)O)C(C)C [SASVIPVSA] (H-SASVIPVSA-OH)

Molecule: C[C@H](CS)C(=O)N1CCC[C@H]1C(=O)O [captopril]
Maximum reduction of systolic blood pressure [2]: 14.9%

Molecule: IVVE
IC50 ([3]; reported peptides): 315 µM

Molecule: QLLLQQ
IC50 ([3]; reported peptides): 75 µM

Molecule: SGGSYADELVSTAK
IC50 ([3]; reported ACE peptide): 0.093 µM

IC50 of ACE inhibitory activity (substrate HHL, HEPES buffer with 300 mM NaCl, pH 8.3, 37°C, HPLC) [4]: 54.2 μM
Molecule: SASVIPVSAVRA [ser-ala-ser-val-ile-pro-val-ser-ala-val-arg-ala (…)]
